# From patent EP2966448B1, “METHOD FOR THE PREDICTION OR PROGNOSIS OF THE RESPONSE OF A HUMAN SUBJECT SUFFERING FROM CANCER TO TREATMENT WITH AN ANTAGONIST OF THE NK1 RECEPTOR” (priority 2013, dated 2014)
# Read-outs that look alike come from different tables or passages of the source.
# Columns and labels:
# [1] = system: Non Hodgkin Lymphoma T; test: Inhibition of primary tumor cell cultures (48 hours) vs NK1 receptor immunostaining (Example 1); format: cell-based; details: Homo sapiens, 1 micromolar, read-out: Percentage of inhibition of cell cultures
# Procedure: (§1) Cell cultures. To obtain tumor cells from human primary tumors we used the method described in De Bari et al. (De Bari et al. 2001). Briefly, small pieces of the tumors were digested into a hyaluronidase solution (Sigma-Aldrich, USA) at a concentration of 1 mg/ml during 15 minutes at 37°C, and then they were treated with 6 mg/ml of collagenase type IV (Invitrogen) during 2 hours at 37°C. Consecutively, cells were washed, and resuspended in the DMEM culture medium with high concentration of glucose (Dulbecco's Modified Eagle's Medium, Invitrogen) supplemented with 1% of antibiotics-antimycotics (Invitrogen) and with 1% of sodium pyruvate (Invitrogen), and the cells were seeded in culture slides at a concentration of 10.000 cells per square centimeter. When cells reached confluence, the adherent cells were separated using sterile trypsin at 0,5% (Invitrogen) and they were used among passages 3 and 9. For the assays shown next, tumor cells were seeded on slides at a concentration of 25.000 cells per well. A total of 6 wells containing the tumor cells were used as survival control. […] All the cultures were kept during 48 hours and later on recollected for their analysis.
# (§2) Immunohistochemistry techniques. The presence of NK1 receptors was also analyzed using immunohistochemistry techniques. Briefly, a sample of each of the cultures of the cell lines used in the present invention, was centrifuged (5 minutes at 1.500 rpm) and the pellet obtained was dehydrated using increasing concentrations of ethanol and, finally, xylol. Then, said dehydrated samples were embedded in paraffin, creating a block of cells. Such paraffin blocks were cut with a microtome at 5 microns thickness, and were placed on microscope slides adequate to perform immunohistochemistry techniques. Consecutively, they were de-paraffinized by immersing them in xylol, to be finally hydrated using a solution containing decreasing concentrations of ethanol, and finally submerged them into water. […] After this, the samples were left to cool down at room temperature for 10 minutes. The endogenous peroxidase activity was blocked with 3% peroxide of hydrogen for 30 minutes at room temperature. After washing the samples with 0.05 M of Tris buffer, they were incubated with 10% non-immune pork serum at for 30 minutes at room temperature. To analyze the expression of NK1 receptors, the cellular samples were incubated in the presence of anti-NK1 antibodies (S8305, Sigma-Aldrich) diluted 1:1000, overnight at 4°C. Afterwards, the samples were washed in Tris buffer 0.05 M at room temperature. The next step was the addition of Envision System-HRP (Dako) reagents for 30 minutes at room temperature. Then, the samples were washed again in Tris buffer 0.05 M and the immunoreactivity was visualized through light microscopy with a chromogenic solution containing 3,3'-Diaminobenzidine (DAB+; Dako, USA). To differentiate the cell nuclei, they were slightly stained with hematoxylin. As negative control, it was used samples not incubated with the primary antibody anti-NK1, which was replaced by non-immune serum. All the samples were evaluated.
# (§3) To value the immunostaining in each of the cases six cuts were performed to be analyzed by the immunohistochemistry technique. In each of the six cuts, it was counted cells in 20 fields (magnification 400x) using an Olympus microscope (model CX31). In each field it was counted the total number of cells and the number of cells presenting immunostaining, calculating afterwards the percentage of cells which presented immunostaining.
# [2] = system: Non Hodgkin Lymphoma B (diffuse B cell lymphoma); test: Inhibition of primary tumor cell cultures vs Kras mutation (Example 2); format: cell-based, human; details: Homo sapiens, B-cell, 100 micromolar, read-out: Percentage of inhibition of cell cultures
# Procedure: as §1
# (§4) In each case the presence or not of mutations in K-ras gene was determined.
# (§5) To determine the existence of mutations in the K-ras gene DNA from cancer tumor cells was extracted from samples obtained from the different cancer tumor cells, using DNA extraction kits from Takara (Madison, WI, US) or Ambion (Huntingdon, Cambridgeshire, United Kingdom), following the manufacturer's instructions, and as it has been previously published (Di Fiore F, et al. 2007). Consecutively it was analyzed by sequencing the exon 2 of the KRAS gene, , by means of PCR amplification from previously extracted cancer tumor DNA, using the following sense primer (SEQ ID NO. 15): 5'-[sequence]-3' and anti-sense primer (SEQ ID NO. 16): 5'-[sequence]-3'. After the purification using the Qiagen extraction kit, the PCR products were sequenced using the Big Dye Terminator Kit V3.1 (Applied Biosystems, Foster City, CA, U.S.) and an ABI Prism 377 or 3100 DNA sequencer (Applied Biosystems). The presence of a heterozygous mutation in the KRAS gene in cancer tumor cells of the cultures was defined as the appearance of a mutant peak of a height of at least a third of the wild type. All the sequence analysis were executed at least twice in two independent PCR.
# (§6) The percentages of inhibition are expressed in percentage of variation in relation to control ± standard deviation.
# [3] = system: Hodgkin lymphoma; test: Inhibition of primary tumor cell cultures (48 hours) vs NK1 receptor immunostaining (Example 1); format: cell-based; details: Homo sapiens, 1 micromolar, read-out: Percentage of inhibition of cell cultures
# Procedure: as §1, §2, §3
# [4] = system: Prostate carcinoma; test: cells; details: Homo sapiens, 1 micromolar
# Procedure: as §1, §2, §3
# [5] = system: Thyroid carcinoma (papillary type); test: Inhibition of primary tumor cell cultures (48 hours) vs NK1 receptor immunostaining (Example 1); format: cell-based; details: Homo sapiens, 1 micromolar, read-out: Percentage of inhibition of cell cultures
# Procedure: as §1, §2, §3
# [6] = system: human primary tumor cells; test: Inhibition of primary tumor cell cultures vs absence or presence of AKT protein (Example 4; tumor type per table line); format: cell-based; details: cancer cell cultures showing more presence of AKT, compared; non-peptidic antagonists 100 micromolar, antibody 1/50
# Procedure: (§7) Cell cultures. […] Briefly, small pieces of the tumors were digested into a hyaluronidase solution (Sigma-Aldrich, USA) at a concentration of 1 mg/ml during 15 minutes at 37°C, and then they were treated with 6 mg/ml of collagenase type IV (Invitrogen) during 2 hours at 37°C. Consecutively, cells were washed, and resuspended in the DMEM culture medium with high concentration of glucose (Dulbecco's Modified Eagle's Medium, Invitrogen) supplemented with 1% of antibiotics-antimycotics (Invitrogen) and with 1% of sodium pyruvate (Invitrogen), and the cells were seeded in culture slides at a concentration of 10.000 cells per square centimeter. When cells reached confluence, the adherent cells were separated using sterile trypsin at 0,5% (Invitrogen) and they were used among passages 3 and 9. For the assays shown next, tumor cells were seeded on slides at a concentration of 25.000 cells per well. A total of 6 wells containing the tumor cells were used as survival control. […] All the cultures were kept during 48 hours and later on recollected for their analysis.
# Afterwards, the cells were cultured in presence of several antagonists of the NK1 receptor.
# In each case it was determined the presence or absence of the AKT protein effector downstream in the PI3 Kinases pathway.
# To determine the presence of the AKT protein in the different cultures Western Blot technique was performed (following the description in example 1-Western Blot section), but using as primary antibody with reference: Akt (pan) (11E7) Rabbit mAb (4685, Cell Signalling).
# The antibody against NK1 receptor (Table 26) was used at 1/50 concentration. The percentages of inhibition are expressed in percentage of variation in relation to control ± standard deviation.
# [7] = system: Breast carcinoma (ductal adenocarcinoma); test: Inhibition of primary tumor cell cultures vs Kras mutation (Example 2); format: cell-based, human; details: Homo sapiens, 100 micromolar, read-out: Percentage of inhibition of cell cultures
# Procedure: as §7, §4, §5
# (§8) The antibody against NK1 receptor (Table 16) was used at 1/50 concentration. The percentages of inhibition are expressed in percentage of variation in relation to control ± standard deviation.
# [8] = system: Undifferentiated Pleomorphic Sarcoma (malignant fibrous histiocytoma grade 3); test: as above; format: cell-based, human; details: Homo sapiens, 100 micromolar, read-out: Percentage of inhibition of cell cultures
# Procedure: as §1, §4, §5, §6
# [9] = system: Lung carcinoma (small cell lung carcinoma); test: as above; format: cell-based, human; details: Homo sapiens, 100 micromolar, read-out: Percentage of inhibition of cell cultures
# Procedure: To obtain tumor cells from human primary tumors we used the method described in De Bari et al. (De Bari et al. 2001). Briefly, small pieces of the tumors were digested into a hyaluronidase solution (Sigma-Aldrich, USA) at a concentration of 1 mg/ml during 15 minutes at 37°C, and then they were treated with 6 mg/ml of collagenase type IV (Invitrogen) during 2 hours at 37°C. Consecutively, cells were washed, and resuspended in the DMEM culture medium with high concentration of glucose (Dulbecco's Modified Eagle's Medium, Invitrogen) supplemented with 1% of antibiotics-antimycotics (Invitrogen) and with 1% of sodium pyruvate (Invitrogen), and the cells were seeded in culture slides at a concentration of 10.000 cells per square centimeter. When cells reached confluence, the adherent cells were separated using sterile trypsin at 0,5% (Invitrogen) and they were used among passages 3 and 9. For the assays shown next, tumor cells were seeded on slides at a concentration of 25.000 cells per well. A total of 6 wells containing the tumor cells were used as survival control. […] All the cultures were kept during 48 hours and later on recollected for their analysis.
# as §4, §5, §8
# [10] = system: Ovarian carcinoma (Adenocarcinoma); test: as above; format: cell-based, human; details: Homo sapiens, 100 micromolar, read-out: Percentage of inhibition of cell cultures
# Procedure: as §7, §4, §5, §8
# [11] = system: Prostate carcinoma; test: as above; format: cell-based, human; details: Homo sapiens, 100 micromolar, read-out: Percentage of inhibition of cell cultures
# Procedure: as §1, §4, §5, §6
# [12] = system: human primary tumor cells; test: Inhibition of primary tumor cell cultures vs low or high expression of the truncated form of NK1 receptor (Example 5; tumor type per table line); format: cell-based; details: for Percentage of inhibition of cell cultures: 100 micromolar
# Procedure: as §1
# The presence of the truncated form of NK1 receptor was determined and then cells were cultured in presence of several antagonists of the NK1 receptor.
# In each case the presence of the truncated form of the NK1 receptor was determined.
# To determine the presence of the truncated form of the gene of NK1 receptor PCR technique was performed (Polymerase Chain Reaction). The extraction of RNA, amplifications of PCR, cycle conditions and quantitative analysis were executed as it has been previously described. The specific primers were the following: For the full-length NK1R receptor (NM_001058.3; forward (SEQ ID NO: 17)-: 5'-[sequence]-3 ' and reverse- (SEQ ID NO:18): 5'-[sequence]-3') and for the truncated NK1receptor (NM_015727.2; forward (SEQ ID NO: 19): 5'-[sequence]-3 and reverse (SEQ ID NO;20): 5'-[sequence]-3').
# Cases were distributed in two groups: • Group A -low expression of the truncated form of NK1 receptor- for those cases wherein the expression of the truncated form of NK1 receptor was less than double the expression of the full length form of such receptor. • Group B -high expression of the truncated form of NK1 receptor- for those cases wherein the expression of the truncated form of the NK1 receptor was higher than double the expression of the full length form of such receptor.
# The percentages of inhibition are expressed in percentage of variation in relation to the control ± standard deviation.
# [13] = system: Carcinoma of the uterine cervix; test: Inhibition of primary tumor cell cultures (48 hours) vs NK1 receptor immunostaining (Example 1); format: cell-based; details: Homo sapiens, NK1 receptor immunostaining Group 1 (less than 20% of the cells); 1 micromolar; read-out: Percentage of inhibition of cell cultures
# Procedure: as §1, §2, §3
# [14] = NK1 receptor immunostaining Group 1 (less than 20% of the cells)
# [15] = NK1 receptor immunostaining Group 2 (20-80% of the cells)
# [16] = NK1 receptor immunostaining Group 3 (more than 80% of the cells)
# [17] = NK1 receptor immunostaining Intensity grade 1
# [18] = NK1 receptor immunostaining Intensity grade 2
# [19] = NK1 receptor immunostaining Intensity grade 3
# [20] = Cases with Kras non-mutated (wild type)
compound,measurement,setting,value
CC(=O)N1CCN([C@H]2CCN(C(=O)N(C)[C@H](C)c3cc(C(F)(F)F)cc(C(F)(F)F)c3)[C@@H](c3ccc(F)cc3C)C2)CC1 [Casopitant],inhibition at 1 µM,[1]; [14],14 ± 2%
same,inhibition at 1 µM,[1]; [15],46 ± 6%
same,inhibition at 1 µM,[1]; [16],94 ± 5%
same,inhibition at 1 µM,[1]; [17],36 ± 5%
same,inhibition at 1 µM,[1]; [18],54 ± 5%
same,inhibition at 1 µM,[1]; [19],92 ± 2%
same,inhibition at 100 µM,[2]; Cases with Kras mutated,26 ± 3%
same,inhibition at 100 µM,[2]; [20],95 ± 4%
same,inhibition at 1 µM,[3]; [14],15 ± 2%
same,inhibition at 1 µM,[3]; [15],47 ± 4%
same,inhibition at 1 µM,[3]; [16],95 ± 4%
same,inhibition at 1 µM,[3]; [17],34 ± 5%
same,inhibition at 1 µM,[3]; [18],54 ± 4%
same,inhibition at 1 µM,[3]; [19],92 ± 4%
same,inhibition at 1 µM,"[4]; read-out: Percentage of inhibition of cell cultures, NK1 receptor immunostaining Group 1 (less than 20% of the cells)",16 ± 2%
same,inhibition at 1 µM,"[4]; read-out: Percentage of inhibition of cell cultures, NK1 receptor immunostaining Group 2 (20-80% of the cells)",45 ± 4%
same,inhibition at 1 µM,"[4]; read-out: Percentage of inhibition of cell cultures, NK1 receptor immunostaining Group 3 (more than 80% of the cells)",93 ± 4%
same,inhibition at 1 µM,"[4]; read-out: Percentage of inhibition of cell cultures, NK1 receptor immunostaining Intensity grade 1",33 ± 5%
same,inhibition at 1 µM,"[4]; read-out: Percentage of inhibition of cell cultures, NK1 receptor immunostaining Intensity grade 2",53 ± 3%
same,inhibition at 1 µM,"[4]; read-out: Percentage of inhibition of cell cultures, NK1 receptor immunostaining Intensity grade 3",94 ± 2%
same,inhibition at 1 µM,[5]; [14],16 ± 2%
same,inhibition at 1 µM,[5]; [15],44 ± 2%
same,inhibition at 1 µM,[5]; [16],95 ± 5%
same,inhibition at 1 µM,[5]; [17],35 ± 4%
same,inhibition at 1 µM,[5]; [18],55 ± 6%
same,inhibition at 1 µM,[5]; [19],92 ± 3%
same,inhibition of cell proliferation,[6],higher inhibition
same,inhibition at 100 µM,[7]; Cases with Kras mutated,28 ± 6%
same,inhibition at 100 µM,[7]; [20],96 ± 4%
same,inhibition at 100 µM,[8]; Cases with Kras mutated,26 ± 5%
same,inhibition at 100 µM,[8]; [20],95 ± 5%
same,inhibition at 100 µM,[9]; Cases with Kras mutated,26 ± 4%
same,inhibition at 100 µM,[9]; [20],94 ± 2%
same,inhibition at 100 µM,[10]; Cases with Kras mutated,29 ± 4%
same,inhibition at 100 µM,[10]; [20],97 ± 6%
same,inhibition at 100 µM,[11]; Cases with Kras mutated,23 ± 3%
same,inhibition at 100 µM,[11]; [20],93 ± 7%
same,Percentage of inhibition of cell cultures,"[12]; Glioma (astrocytoma), Cases with high expression of the truncated form of NK1 receptor (Group B)",95±7 percentage
same,Percentage of inhibition of cell cultures,"[12]; Glioma (astrocytoma), Cases with low expression of the truncated form of NK1 receptor (Group A)",24±5 percentage
same,Percentage of inhibition of cell cultures,"[12]; Lung carcinoma (non small cell lung carcinoma), Cases with high expression of the truncated form of NK1 receptor (Group B)",95±6 percentage
same,Percentage of inhibition of cell cultures,"[12]; Lung carcinoma (non small cell lung carcinoma), Cases with low expression of the truncated form of NK1 receptor (Group A)",25±4 percentage
same,Percentage of inhibition of cell cultures,"[12]; Melanoma (Nodular Melanoma), Cases with high expression of the truncated form of NK1 receptor (Group B)",96±6 percentage
same,Percentage of inhibition of cell cultures,"[12]; Melanoma (Nodular Melanoma), Cases with low expression of the truncated form of NK1 receptor (Group A)",23±5 percentage
same,Percentage of inhibition of cell cultures,"[12]; Non Hodgkin Lymphoma B (diffuse B cell lymphoma), Cases with high expression of the truncated form of NK1 receptor (Group B)",97±4 percentage
same,Percentage of inhibition of cell cultures,"[12]; Non Hodgkin Lymphoma B (diffuse B cell lymphoma), Cases with low expression of the truncated form of NK1 receptor (Group A)",24±3 percentage
same,Percentage of inhibition of cell cultures,"[12]; Non Hodgkin Lymphoma T (diffuse T cell lymphoma), Cases with high expression of the truncated form of NK1 receptor (Group B)",98±3 percentage
same,Percentage of inhibition of cell cultures,"[12]; Non Hodgkin Lymphoma T (diffuse T cell lymphoma), Cases with low expression of the truncated form of NK1 receptor (Group A)",23±4 percentage
same,Percentage of inhibition of cell cultures,"[12]; Prostate carcinoma, Cases with high expression of the truncated form of NK1 receptor (Group B)",94±4 percentage
same,Percentage of inhibition of cell cultures,"[12]; Prostate carcinoma, Cases with low expression of the truncated form of NK1 receptor (Group A)",23±6 percentage
same,Percentage of inhibition of cell cultures,"[12]; Thyroid carcinoma (follicular carcinoma), Cases with high expression of the truncated form of NK1 receptor (Group B)",93±4 percentage
same,Percentage of inhibition of cell cultures,"[12]; Thyroid carcinoma (follicular carcinoma), Cases with low expression of the truncated form of NK1 receptor (Group A)",23±3 percentage
same,Percentage of inhibition of cell cultures,"[12]; Thyroid carcinoma (papillary carcinoma), Cases with high expression of the truncated form of NK1 receptor (Group B)",94±5 percentage
same,Percentage of inhibition of cell cultures,"[12]; Thyroid carcinoma (papillary carcinoma), Cases with low expression of the truncated form of NK1 receptor (Group A)",24±5 percentage
same,Percentage of inhibition of cell cultures,"[12]; Undifferentiated Pleomorphic Sarcoma (malignant fibrous histiocytoma grade 3), Cases with high expression of the truncated form of NK1 receptor (Group B)",94±5 percentage
same,Percentage of inhibition of cell cultures,"[12]; Undifferentiated Pleomorphic Sarcoma (malignant fibrous histiocytoma grade 3), Cases with low expression of the truncated form of NK1 receptor (Group A)",25±4 percentage
same,Percentage of inhibition of cell cultures,"[12]; Urinary bladder carcinoma (transitional cell carcinoma), Cases with high expression of the truncated form of NK1 receptor (Group B)",95±7 percentage
same,Percentage of inhibition of cell cultures,"[12]; Urinary bladder carcinoma (transitional cell carcinoma), Cases with low expression of the truncated form of NK1 receptor (Group A)",25±4 percentage
same,inhibition of cell proliferation,"[12]; cancer cell cultures that show more expression of the truncated form of NK1 receptor, compared, non-peptidic antagonists 100 micromolar, antibody 1/50",higher inhibition
same,inhibition at 1 µM,[13],16 ± 3%
